From PubChem BioAssay (NCI) come the findings set out here.

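Dose response: 5 concentrations. Exposure: 48 h. Format: 96-well plates. Endpoint: linear interpolation; highest concentration if not reached. GI50 marks 50% less growth. Definition used: TGI = concentration required for complete inhibition of growth.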

Test systems include A498 renal; CAKI-1 renal; KM12 colon; NCI/ADR-RES ovarian; OVCAR-5 ovarian; RPMI-8226 leukemia; SK-MEL-2 melanoma; SK-MEL-28 melanoma; SN12C renal; U251 CNS.
Common to all, as to assay: DTP human tumour cell line panel, 48 h

As for `Cc1ccc(C)c2c1C(O)(C#Cc1ccccc1)c1ccccc1C2(O)C#Cc1ccccc1` (centres undefined), the GI50 in the assay on A498 renal is 2.2 µM; with CAKI-1 renal it was 2.38 µM; in the assay on KM12 colon, 2.93 µM; in the assay on NCI/ADR-RES ovarian, 3.63 µM; with OVCAR-5 ovarian it was 8.39 µM; in the assay on RPMI-8226 leukemia, 1.83 µM. Besides, the GI50 with SK-MEL-2 melanoma is 2.98 µM; in the assay on SK-MEL-28 melanoma, 3.75 µM; in the assay with SN12C renal, 3.04 µM; with U251 CNS, 2.76 µM. The TGI with A498 renal is 14.9 µM; in the assay with CAKI-1 renal, above 30.7 µM; in the assay with KM12 colon it was 27.1 µM; in the assay on NCI/ADR-RES ovarian it was above 28.9 µM; in the assay with OVCAR-5 ovarian, above 100 µM; in the assay on SK-MEL-2 melanoma it was 11.5 µM. Further, the total growth inhibition concentration (TGI) in the assay on SK-MEL-28 melanoma is above 88.5 µM; in the assay with SN12C renal, 89.2 µM; in the assay with U251 CNS, above 100 µM.
In the case of `COc1ccc(-c2cn[nH]c2-c2cc(OC)c3c(c2)OCO3)cc1`, the GI50 was 0.0632 µM with A498 renal; 0.262 µM with CAKI-1 renal; 0.0929 µM in the assay with KM12 colon; 0.12 µM in the assay with NCI/ADR-RES ovarian; 1.34 µM in the assay with OVCAR-5 ovarian; 0.314 µM with RPMI-8226 leukemia. The GI50 in the assay on SK-MEL-2 melanoma is 0.265 µM; with SK-MEL-28 melanoma, 1.22 µM; in the assay on SN12C renal, 1.1 µM; in the assay with U251 CNS, 0.321 µM. For the same compound, the TGI in the assay with A498 renal came out at 1.13 µM; in the assay on CAKI-1 renal, 24.9 µM; in the assay with KM12 colon, 11.1 µM; in the assay with NCI/ADR-RES ovarian, 27.4 µM; in the assay on OVCAR-5 ovarian, 36.6 µM; in the assay with RPMI-8226 leukemia, 14.5 µM. The TGI stood at 17.8 µM in the assay with SK-MEL-2 melanoma, 28.5 µM in the assay with SK-MEL-28 melanoma, 27.7 µM in the assay on SN12C renal and 10.7 µM with U251 CNS.
Regarding `C=C1C(=O)O[C@H]2C[C@@H]1CC/C(C)=C/CC/C(C)=C/CC[C@H]2C`, the GI50 was 20.6 µM in the assay on A498 renal; 17 µM with CAKI-1 renal; 18.1 µM in the assay with KM12 colon; 7.43 µM in the assay on NCI/ADR-RES ovarian; 17.2 µM in the assay on OVCAR-5 ovarian; 5.46 µM in the assay with RPMI-8226 leukemia. Besides, the GI50 was 30.9 µM in the assay on SK-MEL-2 melanoma, 21.4 µM in the assay on SK-MEL-28 melanoma, 20.6 µM in the assay on SN12C renal and 14.6 µM in the assay on U251 CNS. In addition, the TGI amounted to 36.6 µM in the assay on A498 renal; 33.6 µM in the assay on CAKI-1 renal; 44.4 µM in the assay on KM12 colon; 21.5 µM in the assay with NCI/ADR-RES ovarian; 34.6 µM with OVCAR-5 ovarian; 13.9 µM in the assay with RPMI-8226 leukemia. The TGI is above 61.9 µM in the assay with SK-MEL-2 melanoma, 42.9 µM with SK-MEL-28 melanoma, 39 µM in the assay with SN12C renal and 28.3 µM in the assay with U251 CNS.
`COc1ccc(S(=O)(=O)N2CC(C)(C)CN(S(=O)(=O)c3ccc(OC)cc3)C2C(=O)NO)cc1`: the GI50 in the assay with A498 renal was above 20 µM; in the assay with CAKI-1 renal it was above 14.1 µM; with KM12 colon, above 20 µM; in the assay with NCI/ADR-RES ovarian it was above 20 µM; in the assay on OVCAR-5 ovarian it was above 20 µM; in the assay on RPMI-8226 leukemia, 6.37 µM. The GI50 with SK-MEL-2 melanoma, with SK-MEL-28 melanoma, in the assay with SN12C renal and in the assay with U251 CNS was above 20 µM throughout. The TGI in the assay with A498 renal, in the assay with CAKI-1 renal, in the assay with KM12 colon, with NCI/ADR-RES ovarian, in the assay on OVCAR-5 ovarian and in the assay with RPMI-8226 leukemia was above 20 µM each time. For the same compound, the TGI in the assay on SK-MEL-2 melanoma, with SK-MEL-28 melanoma, in the assay on SN12C renal and in the assay on U251 CNS was above 20 µM in each case.
On to `C#CCOc1cccc(-c2ncnc3cc(NC(=O)CCl)ccc23)c1`, for which the GI50 was 3.83 µM in the assay with A498 renal; 0.2 µM in the assay on CAKI-1 renal; 0.622 µM with KM12 colon; 1.05 µM with NCI/ADR-RES ovarian; 1.19 µM with OVCAR-5 ovarian; 1.67 µM in the assay with RPMI-8226 leukemia. Moreover, the GI50 with SK-MEL-2 melanoma was 1.26 µM; in the assay on SK-MEL-28 melanoma it was 1.56 µM; in the assay on SN12C renal, 0.115 µM; with U251 CNS it was 0.149 µM. Further, the TGI in the assay with A498 renal turned out to be 15.9 µM; with CAKI-1 renal, 1.76 µM; in the assay on KM12 colon, 3.2 µM; in the assay on NCI/ADR-RES ovarian it was 14.9 µM; with OVCAR-5 ovarian it was 2.86 µM; with RPMI-8226 leukemia it was 6.13 µM. Further, the TGI in the assay with SK-MEL-2 melanoma amounted to 3.78 µM; with SK-MEL-28 melanoma, 4.5 µM; in the assay with SN12C renal, 1.41 µM; in the assay on U251 CNS, 2.76 µM.
Consider `Fc1ccc2[nH]cc(-c3nonc3-c3c[nH]c4ccc(Br)cc34)c2c1`, for which the GI50 with A498 renal is 2.7 µM; in the assay on CAKI-1 renal, 2.89 µM; with KM12 colon it was 1.77 µM; in the assay on NCI/ADR-RES ovarian, 2.87 µM; with OVCAR-5 ovarian, 2.15 µM; with RPMI-8226 leukemia, 2.49 µM. Besides, the GI50 in the assay on SK-MEL-2 melanoma is 2.23 µM; in the assay on SK-MEL-28 melanoma it was 2.86 µM; in the assay on SN12C renal, 3.13 µM; in the assay with U251 CNS it was 3.26 µM. Further, the TGI with A498 renal worked out at 6.38 µM; in the assay with CAKI-1 renal, 13.8 µM; with KM12 colon, 4.05 µM; with NCI/ADR-RES ovarian it was 10.1 µM; with OVCAR-5 ovarian it was 5.8 µM; in the assay with RPMI-8226 leukemia, 9.91 µM. In addition, the TGI in the assay with SK-MEL-2 melanoma is 5.13 µM; with SK-MEL-28 melanoma, 8.15 µM; with SN12C renal, 12.5 µM; in the assay with U251 CNS, 10.3 µM.
For the compound `COc1ccc(C(=O)/C=C/c2ccc(C)cc2)cc1OC`, the GI50 in the assay on A498 renal is 12.5 µM; in the assay with CAKI-1 renal, 18.1 µM; with KM12 colon, 5.68 µM; with NCI/ADR-RES ovarian, 11.7 µM; with OVCAR-5 ovarian, 16.1 µM; in the assay on RPMI-8226 leukemia, 17.5 µM. Moreover, the GI50 with SK-MEL-2 melanoma was 15.9 µM; with SK-MEL-28 melanoma, 16.5 µM; with SN12C renal, 13.1 µM; in the assay with U251 CNS, 4.78 µM. The TGI in the assay with A498 renal came out at 25 µM; with CAKI-1 renal, 52.8 µM; in the assay with KM12 colon, 19 µM; with NCI/ADR-RES ovarian, 28.3 µM; in the assay on OVCAR-5 ovarian, 29.6 µM; in the assay on RPMI-8226 leukemia, 47 µM. Besides, the TGI came out at 40.1 µM in the assay with SK-MEL-2 melanoma, 30.1 µM with SK-MEL-28 melanoma, 26.9 µM in the assay with SN12C renal and 17.3 µM in the assay with U251 CNS.
On to `C=C(c1ccc2nc(NC(=O)OC)[nH]c2c1)c1cccs1`, for which the TGI in the assay on A498 renal was 2.71 µM; in the assay with CAKI-1 renal, 8.27 µM; in the assay with KM12 colon, above 100 µM; in the assay on NCI/ADR-RES ovarian, 0.87 µM; in the assay on OVCAR-5 ovarian it was above 100 µM; with RPMI-8226 leukemia, 3.59 µM. Moreover, the TGI was above 100 µM in the assay on SK-MEL-2 melanoma, above 100 µM in the assay with SK-MEL-28 melanoma, above 100 µM with SN12C renal and 7.31 µM in the assay with U251 CNS.
